Patent US20080214552A1, “Substituted Pyridazinecarboxamides and Derivatives Thereof” (priority 2004, published 2008)

How the values were obtained:
[1] = log P determination by HPLC on reverse-phase column (EEC directive 79/831 Annex V.A8); assay type: physicochemical; conditions: reverse-phase C18 HPLC column, acidic range (pH 2.3), 0.1% aqueous phosphoric acid/acetonitrile, 43° C.
Protocol: The log P values given in the table were determined in accordance with EEC directive 79/831 Annex V.A8 by HPLC (High Performance Liquid Chromatography) on a reverse-phase column (C 18). Temperature: 43° C. (a) Mobile phases for the determination in the acidic range (pH 2.3): 0.1% aqueous phosphoric acid, acetonitrile; linear gradient from 10% acetonitrile to 90% acetonitrile—the corresponding measurement results in table 1 are marked a). Calibration was carried out using unbranched alkan-2-ones (having 3 to 16 carbon atoms) with known log P values (determination of the log P values by the retention times using linear inter-polation between two successive alkanones).

[2] = system: larvae of the mustard beetle (Phaedon cochleariae); assay: Phaedon test (spray treatment); assay type: in vivo; conditions: 500 g/ha, spray treatment of Chinese cabbage disks
Protocol: (§1) To produce a suitable preparation of active compound, 1 part by weight of active compound is mixed with the stated amounts of solvents and emulsifier, and the concentrate is diluted with emulsifier-containing water to the desired concentration. Disks of Chinese cabbage (Brassica pekinensis) are sprayed with a preparation of active compound of the desired concentration and, after drying, populated with larvae of the mustard beetle (Phaedon cochleariae). After the desired period of time, the effect in % is determined. 100% means that all beetle larvae have been killed; 0% means that none of the beetle larvae have been killed.

[3] = system: caterpillars of the armyworm (Spodoptera frugiperda); assay: Spodoptera frugiperda test (spray treatment); assay type: in vivo; conditions: 500 g/ha, spray treatment of corn leaf disks
Protocol: as §1, with “corn leaves (Zea mays)” for “Chinese cabbage (Brassica pekinensis)”, “caterpillars” for “larvae”, “armyworm (Spodoptera frugiperda).” for “mustard beetle (Phaedon cochleariae).”, “caterpillars” for “beetle larvae”

chromatographic logP [1] | SMILES | Kill rate in % after 7 d [2] [%] | Kill rate in % after 7 d [3] [%]
0.6 | N#CCNC(=O)c1cnncc1C(F)(F)F [Example 1, N-cyanomethyl-5-trifluoromethylpyridazine-4-carboxamide] | – | –
– | O=C(NC(c1ccccc1)c1ccccn1)c1cnncc1C(F)(F)F (stereo not shown) [Ia-59] | 100 | 100
1.68 | COC(=O)c1cnncc1C(F)(F)F [methyl 5-trifluoromethylpyridazine-4-carboxylate] | – | –
